These are literature values, as cited in US20090232916A1, “FOOD PRODUCTS FOR DIABETICS” (priority 2004, published 2009).

The data set has as its system IGT subjects. The conditions noted are these: over a period of three years.

Turning to `CN(C)C(=N)N=C(N)N` [metformin], the “reduction of the risk of progressing from IGT to diabetes” value was 31%.
